The source of these data is paper PMC9142559 (2022).

Test [1] relates to yjdF wt aptamer domain (Streptococcus ratti) (RNA, riboswitch) GGUAUAAAAACACAUUGCAGUUGGUAGUCUGCAAGCAUCAUCAGAUGUCAGUAACCUUCCCUCCAAGGUCGUCCCAUACC
Put plainly: ligand fluorescence titration with RNA. The settings on record: 100 mM K+, 5 mM Mg2+; 20 mM Mops pH 7.0, 10 μM EDTA, 50 nM harmine; biphasic two-site Hill fit, site not stated.

In test [2] the test system is circΔP3 (circ∆L3) (RNA, riboswitch) GAUGUCAGUAACCUUCCCUCCAAGGUCGUCCCAUACCGUUCGCGGUAUAAAAACACAUUGCAGUUGGUAGUCUGCAAGCAUC
Put plainly: ligand fluorescence titration with RNA. The settings on record: 100 mM K+, 5 mM Mg2+; 20 mM Mops pH 7.0, 10 μM EDTA, 50 nM harmine; biphasic two-site Hill fit, site not stated; nearly identical to wt.

For test [3], the system named is yjdF TLC (T-loop chimera, Streptococcus ratti) (RNA, riboswitch) GGUAUAAAAACACAUUGCAGUUGGUAGUCUGCAAGCAUCAUCAGAUGUCAGUAACCGGUUCGAAUCCGGUCGUCCCAUACC
Kind of test: ligand fluorescence titration with RNA. The settings on record: 100 mM K+, 5 mM Mg2+; 20 mM Mops pH 7.0, 10 μM EDTA, 50 nM harmine; biphasic two-site Hill fit, site not stated; nearly identical to wt.

The subject of test [4] is yjdF wt aptamer domain (Staphylococcus aureus) (RNA, riboswitch) UAGAAGUGUAAAAACACAAUUGGGUUGGUAGUCCCAAUGCAGUUUUAAAACUGUCAGUAACCUUCCUCCUCGGGUUGUCCGUCAUUUCUA
Put plainly: ribosome filter binding (ligand-dependent). The settings on record: 100 mM NH4+, 5 mM Mg2+; 20 mM Hepes pH 7.0, 0.5 mM spermine; indirect.

Test [5] concerns yjdF wt aptamer domain (Enterococcus pallens) (RNA, riboswitch) CGAGCAUAAAAACACGAGGCGGUUGGUAGUCCGCCGCAUGAAAAUGUCAGUAGCCUUCCCUCCCGGGUCGUCCAUUGCUCG
Put plainly: SEC (ligand-dependent folding). To be noted: 100 mM K+, 5 mM Mg2+; 20 mM Mops pH 7.0, 10 μM EDTA; 60 nM chelerythrine in running buffer; indirect.

The subject of test [6] is yjdF wt aptamer domain (Streptococcus ratti) (RNA, riboswitch) GGUAUAAAAACACAUUGCAGUUGGUAGUCUGCAAGCAUCAUCAGAUGUCAGUAACCUUCCCUCCAAGGUCGUCCCAUACC
Put plainly: SHAPE probing (protection of A4, A5). The settings on record: 150 mM K+, 3 mM Mg2+; 20 mM MOPS-KOH pH 7.0, 10 μM EDTA, 2.5 μM ligand, 21 °C.

In test [7] the test system is yjdF wt aptamer domain (Staphylococcus aureus) (RNA, riboswitch) UAGAAGUGUAAAAACACAAUUGGGUUGGUAGUCCCAAUGCAGUUUUAAAACUGUCAGUAACCUUCCUCCUCGGGUUGUCCGUCAUUUCUA
Kind of test: SAXS; ribosome filter binding (ligand-dependent). To be noted: 100 mM K+, 2.5 mM Mg2+ (SAXS); 20 mM Mops pH 7.0 (SAXS).

The test system of test [8] is yjdF wt aptamer domain (Streptococcus ratti) (RNA, riboswitch) GGUAUAAAAACACAUUGCAGUUGGUAGUCUGCAAGCAUCAUCAGAUGUCAGUAACCUUCCCUCCAAGGUCGUCCCAUACC
Put plainly: ligand fluorescence emission (10-fold increase, 25 nm shift). To be noted: 100 mM K+, 5 mM Mg2+; 20 mM Mops pH 7.0, 10 μM EDTA, 50 nM ligand, 20 °C.

Test [9] has the same test system. Kind of test: ligand fluorescence emission (10-fold increase). The settings on record: 100 mM K+, 5 mM Mg2+; 20 mM Mops pH 7.0, 10 μM EDTA, 50 nM ligand, 20 °C.

Molecules are shown by their SMILES.

As a reminder, the Kd is the free concentration of one partner at which half of the binding sites on the other are occupied at equilibrium, for simple one-to-one binding. Low values mean higher affinity, high ones lower affinity. In the case of `COc1ccc2c(c1)[nH]c1c(C)nccc12`, the Kd in [1] is reported as 230 ± 30 nM. Further, the binding entry in test [2], in test [3] and in test [4] was “yes” in each case.
With `COc1ccc2c(c[n+](C)c3c4cc5c(cc4ccc23)OCO5)c1OC`, the binding result in test [5], in [6], in test [7] and in [8] was “yes” throughout.
As for `C[n+]1cc2c3c(ccc2c2ccc4cc5c(cc4c21)OCO5)OCO3`, the binding result in test [6] and in [9] was “yes” throughout.
